≈ marks a conversion by molar mass, not a printed value. Like-named read-outs stand apart in the source and are kept apart here. Residues, ends and D or L forms follow the SMILES beside them.
Legend:
Assay in all cases: microbe, parasite or virus in culture
[1] = test system: A. baumannii; details: A. baumannii Greece CI, XDR; PmxR; MHB; mode of 6 replicates
Method in brief: (§1)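 Broth microdilution in MHB, 2-fold 12-point series from 128 or 64 down to 0.06 or 0.03 μg mL^−1, 5 × 10^5 CFU mL^−1. Extra runs in CAMHB per CLSI and in MHB with 1% agarose; n ≥ 6.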

[2] = test system: E. coli
Method in brief: as §1

[3] = test system: K. pneumoniae; details: for MIC, broth microdilution: plate 1, colony 1; for MIC K. pneumoniae ATCC BAA-2146: NDM-1 strain, NBS Corning 3641 plate
Method in brief: as §1

[4] = test system: P. aeruginosa
Method in brief: as §1

CC(C)[C@@H]1NC(=O)[C@H](Cc2ccc(O)cc2)NC(=O)[C@H](Cc2c[nH]c3ccccc23)NC(=O)[C@@H](NC(=O)[C@H](Cc2ccccc2)NC(=O)CN)CSSC[C@@H](C(=O)N[C@@H](CC(N)=O)C(=O)O)NC(=O)[C@H](CCCNC(=N)N)NC(=O)[C@H](CCCNC(=N)N)NC(=O)[C@H](Cc2ccc(O)cc2)NC(=O)[C@@H]2CSSC[C@H](NC1=O)C(=O)N[C@@H](C)C(=O)N[C@@H](CCCNC(=N)N)C(=O)N[C@@H](CCCNC(=N)N)C(=O)N[C@@H](CC(N)=O)C(=O)NCC(=O)N[C@@H](C)C(=O)N[C@@H](CCCNC(=N)N)C(=O)N[C@@H](C(C)C)C(=O)N2 [AA139] (HELM PEPTIDE1{G.F.C.W.Y.V.C.A.R.R.N.G.A.R.V.C.Y.R.R.C.N}$PEPTIDE1,PEPTIDE1,3:R3-20:R3|PEPTIDE1,PEPTIDE1,7:R3-16:R3$$$V2.0)
BMD MIC [1]: 0.5 µg/mL | MIC against ESBL producing E. coli DSA 443 [2]: 0.5 µg/mL (≈ 0.196 µM) | MIC, broth microdilution [2]: 0.06 µg/mL (≈ 0.0235 µM) | MIC, broth microdilution ([2]; E. coli AUD172 spontaneous mutant, AA139 selection 4X, plate 2, colony 2, drug-free passage 1): 0.12 µg/mL (≈ 0.0471 µM) | MIC, broth microdilution ([2]; E. coli AUD172 spontaneous mutant, AA139 selection 4X, plate 2, colony 2, drug-free passage 5): 0.25 µg/mL (≈ 0.098 µM) | BMD MIC ([2]; E. coli ESBL20150072, mcr-1 pos, ESBL, CAMHB, AA139): 0.5 µg/mL | BMD MIC [3]: 0.5 µg/mL | MIC K. pneumoniae BAA-2146 (NDM-1) ([3]; BMD, MHB, 18-20 h 37 °C, mode of ≥6 independent biological replicates): 1 µg/mL (≈ 0.392 µM) | MIC, broth microdilution ([3]; K. pneumoniae 3010 spontaneous mutant, AA139 selection 4X, drug-free passage 1): 2, 2 µg/mL | MIC, broth microdilution ([3]; K. pneumoniae 3010 spontaneous mutant, AA139 selection 4X, drug-free passage 5): 2, 2 µg/mL | MIC, broth microdilution ([3]; K. pneumoniae 3010 spontaneous mutant, AA139 selection 8X, drug-free passage 1): 2, 2 µg/mL | MIC, broth microdilution ([3]; K. pneumoniae 3010 spontaneous mutant, AA139 selection 8X, drug-free passage 5): 2, 2 µg/mL | BMD MIC ([3]; K. pneumoniae ATCC 700603 (K6), MDR, OXA-2/SHV-18, CAMHB, mode of 6 replicates): 2 µg/mL | BMD MIC ([3]; K. pneumoniae ATCC 700603 (K6), MDR, OXA-2/SHV-18, MHB, mode of 6 replicates): 0.5 µg/mL | BMD MIC ([3]; K. pneumoniae BAA-2146, MDR, ESBL, NDM-1 pos, MHB, mode of 6 replicates): 1 µg/mL | BMD MIC ([3]; K. pneumoniae Greece CI 8_GR_13, XDR, KPC-2, PmxR, MHB, mode of 6 replicates): 16 µg/mL | MIC, broth microdilution ([3]; K. pneumoniae ST258 spontaneous mutant, AA139 selection 4X, drug-free passage 1): 2, 2 µg/mL | MIC, broth microdilution ([3]; K. pneumoniae ST258 spontaneous mutant, AA139 selection 4X, drug-free passage 5): 2, 2 µg/mL | MIC K. pneumoniae ATCC BAA-2146 ([3]; CAMHB, replicate 1): 1 µg/mL (≈ 0.392 µM) | MIC K. pneumoniae ATCC BAA-2146 ([3]; CAMHB, replicate 2): 1 µg/mL (≈ 0.392 µM) | MIC K. pneumoniae ATCC BAA-2146 ([3]; CAMHB, replicate 3): 1 µg/mL (≈ 0.392 µM) | MIC K. pneumoniae ATCC BAA-2146 ([3]; CAMHB, replicate 4): 2 µg/mL (≈ 0.784 µM) | MIC K. pneumoniae ATCC BAA-2146 ([3]; CAMHB, replicate 5): 1 µg/mL (≈ 0.392 µM) | MIC K. pneumoniae ATCC BAA-2146 ([3]; CAMHB, replicate 6): 1 µg/mL (≈ 0.392 µM) | MIC K. pneumoniae ATCC BAA-2146 ([3]; CAMHB, replicate 7): 0.5 µg/mL (≈ 0.196 µM) | MIC K. pneumoniae ATCC BAA-2146 ([3]; CAMHB, replicate 8): 0.5 µg/mL (≈ 0.196 µM) | MIC K. pneumoniae ATCC BAA-2146 ([3]; CAMHB, replicate 9): 0.5 µg/mL (≈ 0.196 µM) | MIC K. pneumoniae ATCC BAA-2146 ([3]; CAMHB, replicate 10): 0.25 µg/mL (≈ 0.098 µM) | MIC K. pneumoniae ATCC BAA-2146 ([3]; CAMHB, replicate 11): 0.5 µg/mL (≈ 0.196 µM) | MIC K. pneumoniae ATCC BAA-2146 ([3]; CAMHB, replicate 12): 0.5 µg/mL (≈ 0.196 µM) | MIC K. pneumoniae ATCC BAA-2146 ([3]; CAMHB, replicate 13): 1 µg/mL (≈ 0.392 µM) | MIC K. pneumoniae ATCC BAA-2146 ([3]; CAMHB, replicate 14): 1 µg/mL (≈ 0.392 µM) | MIC against P. aeruginosa (ATCC 27853) [4]: 1.0 µg/mL (≈ 0.392 µM) | MIC, broth microdilution [4]: 1 µg/mL (≈ 0.392 µM) | MIC, broth microdilution ([4]; P. aeruginosa ATCC 27853 spontaneous mutant, AA139 selection 4X, plate 1, colony 1, drug-free passage 1): 1, 1 µg/mL | MIC, broth microdilution ([4]; P. aeruginosa ATCC 27853 spontaneous mutant, AA139 selection 4X, plate 1, colony 1, drug-free passage 5): 1, 1 µg/mL | MIC, broth microdilution ([4]; P. aeruginosa ATCC 27853 spontaneous mutant, AA139 selection 4X, plate 1, colony 2, drug-free passage 1): 1, 1 µg/mL | MIC, broth microdilution ([4]; P. aeruginosa ATCC 27853 spontaneous mutant, AA139 selection 4X, plate 1, colony 2, drug-free passage 5): 1, 1 µg/mL | MIC, broth microdilution ([4]; P. aeruginosa ATCC 27853 spontaneous mutant, AA139 selection 4X, plate 1, colony 3, drug-free passage 1): 1, 1 µg/mL | MIC, broth microdilution ([4]; P. aeruginosa ATCC 27853 spontaneous mutant, AA139 selection 4X, plate 1, colony 3, drug-free passage 5): 1, 1 µg/mL | MIC, broth microdilution ([4]; P. aeruginosa ATCC 27853 spontaneous mutant, AA139 selection 4X, plate 1, colony 4, drug-free passage 1): 2 µg/mL (≈ 0.784 µM) | MIC, broth microdilution ([4]; P. aeruginosa ATCC 27853 spontaneous mutant, AA139 selection 4X, plate 1, colony 4, drug-free passage 5): 1 µg/mL (≈ 0.392 µM) | MIC, broth microdilution ([4]; P. aeruginosa ATCC 27853 spontaneous mutant, AA139 selection 4X, plate 1, colony 5, drug-free passage 1): 2, 2 µg/mL | MIC, broth microdilution ([4]; P. aeruginosa ATCC 27853 spontaneous mutant, AA139 selection 4X, plate 1, colony 5, drug-free passage 5): 2, 2 µg/mL | MIC, broth microdilution ([4]; P. aeruginosa ATCC 27853 spontaneous mutant, AA139 selection 4X, plate 1, colony 6, drug-free passage 1): 1, 1 µg/mL | MIC, broth microdilution ([4]; P. aeruginosa ATCC 27853 spontaneous mutant, AA139 selection 4X, plate 1, colony 6, drug-free passage 5): 1, 1 µg/mL | MIC, broth microdilution ([4]; P. aeruginosa ATCC 27853 spontaneous mutant, AA139 selection 4X, plate 2, colony 1, drug-free passage 1): 1, 1 µg/mL | MIC, broth microdilution ([4]; P. aeruginosa ATCC 27853 spontaneous mutant, AA139 selection 4X, plate 2, colony 1, drug-free passage 5): 1, 1 µg/mL | MIC, broth microdilution ([4]; P. aeruginosa ATCC 27853 spontaneous mutant, AA139 selection 4X, plate 2, colony 2, drug-free passage 1): 1, 1 µg/mL | MIC, broth microdilution ([4]; P. aeruginosa ATCC 27853 spontaneous mutant, AA139 selection 4X, plate 2, colony 2, drug-free passage 5): 1, 1 µg/mL | MIC, broth microdilution ([4]; P. aeruginosa ATCC 27853 spontaneous mutant, AA139 selection 4X, plate 2, colony 3, drug-free passage 1): 1 µg/mL (≈ 0.392 µM) | MIC, broth microdilution ([4]; P. aeruginosa ATCC 27853 spontaneous mutant, AA139 selection 4X, plate 2, colony 3, drug-free passage 5): 0.5 µg/mL (≈ 0.196 µM) | MIC, broth microdilution ([4]; P. aeruginosa ATCC 27853 spontaneous mutant, AA139 selection 4X, plate 2, colony 4, drug-free passage 1): 1 µg/mL (≈ 0.392 µM) | MIC, broth microdilution ([4]; P. aeruginosa ATCC 27853 spontaneous mutant, AA139 selection 4X, plate 2, colony 4, drug-free passage 5): 0.5 µg/mL (≈ 0.196 µM)
